Measured values from US9738933B2, “RNF41 as a biomarker predicting response to lenalidomide in non-del(5q) MDS” (H. LEE MOFFITT CANCER CENTER AND RESEARCH INSTITUTE, INC., priority 2012, dated 2017).

Tests used:
RNF41 = biological target: T1, RNF41 (Homo sapiens, UniProt Q9H4P4); experiment: RNF41 auto-ubiquitination in bortezomib pre-treated UT-7 cells, RNF41 immunoprecipitation and ubiquitin immunoblot; format: cell-based; conditions: bortezomib 20 nM 24 hours, then LEN 0.1, 1, 10 μM, 1 hour
T1 construct: assessed through immunoprecipitation of RNF41 and immunoblotting for ubiquitin; endogenous in cells; host or cells: UT-7
T1 sequence (Q9H4P4 1-317): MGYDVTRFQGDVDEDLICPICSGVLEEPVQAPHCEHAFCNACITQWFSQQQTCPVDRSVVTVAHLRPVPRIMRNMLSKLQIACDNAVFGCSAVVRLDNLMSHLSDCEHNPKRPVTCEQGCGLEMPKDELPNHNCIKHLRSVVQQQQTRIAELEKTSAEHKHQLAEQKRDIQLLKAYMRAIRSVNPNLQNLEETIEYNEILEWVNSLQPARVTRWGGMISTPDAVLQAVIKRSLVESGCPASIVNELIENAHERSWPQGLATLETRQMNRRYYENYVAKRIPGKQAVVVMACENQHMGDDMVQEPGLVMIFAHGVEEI
Procedure: (§1) To investigate the effects of LEN on RNF41 function, protein specific ubiquitination after proteasomal inhibition with bortezomib followed by LEN treatment was investigated. UT-7 cells were pre-treated with bortezomib (20 nM), a proteasome inhibitor, for 24 hours. The cells were subsequently treated with increasing concentrations of LEN (0 μM (control), 0.1 μM, 1 μM, and 10 μM) for 1 hour. The effect of LEN treatment on RNF41 was assessed through immunoprecipitation of RNF41 and immunoblotting for ubiquitin. To verify the observed effects, total protein levels in whole cell lysates were also assessed for RNF41 expression. In order to determine EpoR ubiquitination changes upon LEN treatment, immunoprecipitation of EpoR was carried out followed by immunoblotting for ubiquitin.

non-del(5q) MDS = conditions: MDS patients with non-del(5q); cited from earlier work
EpoR [1] = experiment: LEN-induced EpoR expression in HEK293T cells transfected with EpoR and/or RNF41, immunoblot densitometry; format: cell-based; conditions: EpoR+pMet7-RNF41 vs EpoR HEK293T cells, LEN 0.1, 1, 10 μM, 1 hour
Procedure: FIG. 1 is a bar graph plotting the ratio of EpoR/Actin in EpoR and EpoR+pMet7-RNF41 HEK293T cells treated with increasing concentrations of LEN (0 μM (control), 0.1 μM, 1 μM, and 10 μM).
To confirm that RNF41 is the principal target of LEN responsible for EpoR stabilization, HEK293T cells were transfected with EpoR and/or RNF41 expression vectors using the calcium phosphate method. Transfected cells were treated with increasing concentrations of LEN (0 μM (control), 0.1 μM, 1 μM, and 10 μM) for 1 hour, separated by SDS-PAGE, and immunoblotted with EpoR antibodies. Steady state EpoR expression was lower in EpoR/RNF41 cells compared with cells transfected with EpoR alone.

EpoR/RNF41 = biological target: T2, EpoR/RNF41 (Homo sapiens, UniProt Q9H4P4); experiment: EpoR/RNF41 association in UT-7 cells, EpoR immunoprecipitation and RNF41 immunoblot; format: cell-based; conditions: LEN 0.1, 1, 10 μM, 1 hour
T2 construct: endogenous in cells; host or cells: UT-7
T2 sequence (Q9H4P4 1-317): T1 sequence (Q9H4P4 1-317)
T2 sequence (P19235 25-508 partner): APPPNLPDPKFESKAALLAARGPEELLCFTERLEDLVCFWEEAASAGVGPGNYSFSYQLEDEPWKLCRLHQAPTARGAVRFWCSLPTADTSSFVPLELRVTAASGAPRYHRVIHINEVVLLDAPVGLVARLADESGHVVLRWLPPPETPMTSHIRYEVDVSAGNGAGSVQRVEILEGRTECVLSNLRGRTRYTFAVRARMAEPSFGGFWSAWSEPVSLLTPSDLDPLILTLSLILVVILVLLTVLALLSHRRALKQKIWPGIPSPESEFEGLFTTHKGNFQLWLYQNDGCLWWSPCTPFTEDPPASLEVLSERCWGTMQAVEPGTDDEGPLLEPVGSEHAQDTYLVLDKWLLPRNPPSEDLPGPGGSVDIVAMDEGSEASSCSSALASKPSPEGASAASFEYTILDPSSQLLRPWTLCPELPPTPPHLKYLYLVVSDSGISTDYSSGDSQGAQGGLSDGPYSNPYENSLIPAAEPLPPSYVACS
Procedure: To determine if LEN alters EpoR/RNF41 interaction, protein association after LEN treatment was examined. UT-7 cells were treated with increasing concentrations of LEN (0 μM (control), 0.1 μM, 1 μM, and 10 μM) for 1 hour. The cells were then lysed, and the cell lysates were immunoprecipitated for EpoR, and immunoblotted for EpoR and RNF41.

c-Kit = c-Kit (Type 2 receptor) expression in UT-7 cells, immunoblot; format: cell-based; conditions: LEN 0.1, 1, 10 μM, 1 hour
Procedure: (§2) To examine if the effects of LEN on receptor turnover are restricted to Type 1 cytokine receptors, the effects of LEN on cellular expression of IL3-R (Type 1) and c-Kit (Type 2) were examined. UT-7 cells were treated with increasing concentrations of LEN (0 μM (control), 0.1 μM, 1 μM, and 10 μM) for 1 hour. Samples were separated by SDS-PAGE and immunoblotted with IL3-R (Type 1) and c-Kit (Type 2) antibodies.

IL3-R = IL3-R (Type 1 receptor) expression in UT-7 cells, immunoblot; format: cell-based; conditions: LEN 0.1, 1, 10 μM, 1 hour
Procedure: as §2

EpoR [2] = experiment: EpoR ubiquitination in bortezomib pre-treated UT-7 cells, EpoR immunoprecipitation and ubiquitin immunoblot; format: cell-based; conditions: bortezomib 20 nM 24 hours, then LEN 0.1, 1, 10 μM, 1 hour
Procedure: as §1

EpoR [3] = experiment: EpoR stability in UT-7 cells treated with cycloheximide ± LEN, EpoR immunoblot; format: cell-based; conditions: cycloheximide + 1 μM LEN, CHX alone 56 h
Procedure: UT-7 cells (a cell line established from the bone marrow of a patient with acute megakaryoblastic leukemia) were treated with cycloheximide (CHX)±1 μM LEN for 0, 32, 40, 48, 56, 64, and 72 hours. The samples were then separated by SDS-PAGE, and immunoblotted with EpoR antibodies.

JAK2-associated EpoR = conditions: Basiorka, et al. Blood 2011; cited from earlier work

SMILES: Nc1cccc2c1CN(C1CCC(=O)NC1=O)C2=O (stereo not drawn) [LEN, Lenalidomide]
- RNF41 auto-ubiquitination (RNF41): inhibited RNF41 auto-ubiquitination in a concentration-dependent fashion
- patients likely to be responsive to treatment (non-del(5q) MDS): approximately 26%
- LEN induced EpoR expression (EpoR/Actin) with RNF41 overexpression (EpoR [1]): blocked LEN induced EpoR expression by approximately two-fold
- binding of RNF41 to EpoR (EpoR/RNF41): Increased binding of RNF41 to EpoR occurs in a concentration-dependent manner
- cellular expression of c-Kit (c-Kit): remained unchanged
- cellular expression of IL3-R (IL3-R): Upregulation of IL3-R occurred in a concentration-dependent manner
- EpoR ubiquitination (EpoR [2]): corresponding decrease in EpoR ubiquitination
- cellular EpoR T1/2 (EpoR [3]): > 72 h
- cellular expression of JAK2-associated EpoR (JAK2-associated EpoR): induces cellular expression of JAK2-associated EpoR in a concentration-dependent manner
